Data reported in patent publication US8324412B2, “Method for preparing 4-[17β-methoxy-17α-methoxymethyl-3-oxoestra-4,9-dien-11β-yl]benzaldehyde (E)-oxime (asoprisnil)” (Bayer Pharma AG, priority 2006, dated 2012).

Assay: Stability of the prior-art amorphous solid form in the solid pharmaceutical form under ICH accelerated conditions
Assay type: physicochemical
Conditions: amorphous solid form described in EP 129 26 07, ICH accelerated conditions (40° C., 75% r.h.)
Excerpt: According to the details disclosed in the literature, it is not possible to prepare the individual intermediates on the manufacturing scale in such a way that the medicinally active asoprisnil and its precursors can be obtained therefrom reliably and reproducibly and having the analytical parameters required by the authorities or by the legislation pursuant to ICH Q6A Guidance, 2000, such as byproduct profile, content of active ingredient, chemical and physical purity, and stability. […] The suitability of the asoprisnil obtainable by this method for a solid pharmaceutical form is accordingly low.

Physical stability in the solid pharmaceutical form (recrystallization): partial to complete recrystallization
Compound: COC[C@]1(OC)CC[C@H]2[C@@H]3CCC4=CC(=O)CCC4=C3[C@@H](c3ccc(/C=N/O)cc3)C[C@@]21C [asoprisnil, 4-[17β-methoxy-17α-methoxymethyl-3-oxoestra-4,9-dien-11β-yl]benzaldehyde (E)-oxime]
